According to ChEMBL document CHEMBL1153515 (Bioorg Med Chem, 2009):

Columns and labels:
Format in all cases: functional
[1] = target: T1, 5-hydroxytryptamine receptor 3A (Mus musculus, UniProt P23979); test: Agonist activity at wild type mouse 5HT3A receptor expressed in Xenopus oocyte by two-electrode voltage patch clamp method
T1 sequence (P23979 whole entry): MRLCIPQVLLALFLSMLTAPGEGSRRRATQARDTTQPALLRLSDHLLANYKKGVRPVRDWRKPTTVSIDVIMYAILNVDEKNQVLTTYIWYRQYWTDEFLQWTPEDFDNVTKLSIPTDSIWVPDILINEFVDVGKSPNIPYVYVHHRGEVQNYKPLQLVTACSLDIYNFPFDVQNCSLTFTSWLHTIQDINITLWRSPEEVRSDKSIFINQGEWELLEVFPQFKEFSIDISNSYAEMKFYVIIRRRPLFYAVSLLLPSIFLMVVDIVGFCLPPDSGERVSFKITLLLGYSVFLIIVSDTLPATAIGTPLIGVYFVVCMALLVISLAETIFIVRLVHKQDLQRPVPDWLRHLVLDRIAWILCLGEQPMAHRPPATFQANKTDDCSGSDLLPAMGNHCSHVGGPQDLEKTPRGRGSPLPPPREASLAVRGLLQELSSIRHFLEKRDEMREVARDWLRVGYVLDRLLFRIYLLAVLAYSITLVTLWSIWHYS

[2] = target: 5-hydroxytryptamine receptor 3A (Mus musculus, UniProt P23979, Y142F); test: Agonist activity at mouse 5HT3A Y143F receptor mutant expressed in Xenopus oocyte by two-electrode voltage patch method
[3] = target: 5-hydroxytryptamine receptor 3A (Mus musculus, UniProt P23979, I189V); test: Agonist activity at mouse 5HT3A I190V receptor mutant expressed in Xenopus oocyte by two-electrode voltage patch method
[4] = target: 5-hydroxytryptamine receptor 3A (Mus musculus, UniProt P23979, Q187A); test: Agonist activity at mouse 5HT3A Q188A receptor mutant expressed in Xenopus oocyte by two-electrode voltage patch method
[5] = target: 5-hydroxytryptamine receptor 3A (Mus musculus, UniProt P23979, I186A); test: Agonist activity at mouse 5HT3A I187A receptor mutant expressed in Xenopus oocyte by two-electrode voltage patch method
[6] = target: 5-hydroxytryptamine receptor 3A (Mus musculus, UniProt P23979, T185A); test: Agonist activity at mouse 5HT3A T186A receptor mutant expressed in Xenopus oocyte by two-electrode voltage patch method
[7] = target: 5-hydroxytryptamine receptor 3A (Mus musculus, UniProt P23979, H184Y); test: Agonist activity at mouse 5HT3A H185Y receptor mutant expressed in Xenopus oocyte by two-electrode voltage patch method
[8] = target: 5-hydroxytryptamine receptor 3A (Mus musculus, UniProt P23979, H184F); test: Agonist activity at mouse 5HT3A H185F receptor mutant expressed in Xenopus oocyte by two-electrode voltage patch method
[9] = target: 5-hydroxytryptamine receptor 3A (Mus musculus, UniProt P23979, L183V); test: Agonist activity at mouse 5HT3A L184V receptor mutant expressed in Xenopus oocyte by two-electrode voltage patch method
[10] = target: 5-hydroxytryptamine receptor 3A (Mus musculus, UniProt P23979, W182F); test: Agonist activity at mouse 5HT3A W183F receptor mutant expressed in Xenopus oocyte by two-electrode voltage patch method
[11] = target: 5-hydroxytryptamine receptor 3A (Mus musculus, UniProt P23979, S181A); test: Agonist activity at mouse 5HT3A S182A receptor mutant expressed in Xenopus oocyte by two-electrode voltage patch method
[12] = target: 5-hydroxytryptamine receptor 3A (Mus musculus, UniProt P23979, T180A); test: Agonist activity at mouse 5HT3A T181A receptor mutant expressed in Xenopus oocyte by two-electrode voltage patch method
[13] = target: 5-hydroxytryptamine receptor 3A (Mus musculus, UniProt P23979, Y152A); test: Agonist activity at mouse 5HT3A Y153A receptor mutant expressed in Xenopus oocyte by two-electrode voltage patch method
[14] = target: 5-hydroxytryptamine receptor 3A (Mus musculus, UniProt P23979, Y152F); test: Agonist activity at mouse 5HT3A Y153F receptor mutant expressed in Xenopus oocyte by two-electrode voltage patch method
5-hydroxytryptamine receptor 3A (Mus musculus, UniProt P23979, Y152F), sequence (P23979 24-489 Y153F limits assumed): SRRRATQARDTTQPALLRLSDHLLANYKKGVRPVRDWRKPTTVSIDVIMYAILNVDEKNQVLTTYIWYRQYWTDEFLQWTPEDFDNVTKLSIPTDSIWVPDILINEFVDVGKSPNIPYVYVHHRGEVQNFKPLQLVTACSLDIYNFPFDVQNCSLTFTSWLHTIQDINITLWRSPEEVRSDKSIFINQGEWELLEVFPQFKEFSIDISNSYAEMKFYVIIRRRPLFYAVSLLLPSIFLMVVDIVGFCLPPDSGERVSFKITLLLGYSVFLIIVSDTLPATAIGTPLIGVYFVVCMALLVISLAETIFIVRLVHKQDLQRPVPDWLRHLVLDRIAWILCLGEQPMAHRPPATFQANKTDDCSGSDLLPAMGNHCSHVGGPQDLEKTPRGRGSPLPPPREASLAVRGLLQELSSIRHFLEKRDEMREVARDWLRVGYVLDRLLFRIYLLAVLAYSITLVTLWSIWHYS

5-hydroxytryptamine receptor 3A (Mus musculus, UniProt P23979, T185A), sequence (P23979 24-489 T186A limits assumed): as the sequence (P23979 24-489 Y153F limits assumed) above, with F130Y, T163A counted along it
5-hydroxytryptamine receptor 3A (Mus musculus, UniProt P23979, H184Y), sequence (P23979 24-489 H185Y limits assumed): as the sequence (P23979 24-489 Y153F limits assumed) above, with F130Y, H162Y counted along it
5-hydroxytryptamine receptor 3A (Mus musculus, UniProt P23979, T180A), sequence (P23979 24-489 T181A limits assumed): as the sequence (P23979 24-489 Y153F limits assumed) above, with F130Y, T158A counted along it
5-hydroxytryptamine receptor 3A (Mus musculus, UniProt P23979, L183V), sequence (P23979 24-489 L184V limits assumed): as the sequence (P23979 24-489 Y153F limits assumed) above, with F130Y, L161V counted along it
5-hydroxytryptamine receptor 3A (Mus musculus, UniProt P23979, Y142F), sequence (P23979 24-489 Y143F limits assumed): as the sequence (P23979 24-489 Y153F limits assumed) above, with Y120F, F130Y counted along it
5-hydroxytryptamine receptor 3A (Mus musculus, UniProt P23979, S181A), sequence (P23979 24-489 S182A limits assumed): as the sequence (P23979 24-489 Y153F limits assumed) above, with F130Y, S159A counted along it
5-hydroxytryptamine receptor 3A (Mus musculus, UniProt P23979, I189V), sequence (P23979 24-489 I190V limits assumed): as the sequence (P23979 24-489 Y153F limits assumed) above, with F130Y, I167V counted along it
5-hydroxytryptamine receptor 3A (Mus musculus, UniProt P23979, H184F), sequence (P23979 24-489 H185F limits assumed): as the sequence (P23979 24-489 Y153F limits assumed) above, with F130Y, H162F counted along it
5-hydroxytryptamine receptor 3A (Mus musculus, UniProt P23979, W182F), sequence (P23979 24-489 W183F limits assumed): as the sequence (P23979 24-489 Y153F limits assumed) above, with F130Y, W160F counted along it
5-hydroxytryptamine receptor 3A (Mus musculus, UniProt P23979, I186A), sequence (P23979 24-489 I209A limits assumed): as the sequence (P23979 24-489 Y153F limits assumed) above, with F130Y, I186A counted along it
5-hydroxytryptamine receptor 3A (Mus musculus, UniProt P23979, Q187A), sequence (P23979 24-489 Q188A limits assumed): as the sequence (P23979 24-489 Y153F limits assumed) above, with F130Y, Q165A counted along it
5-hydroxytryptamine receptor 3A (Mus musculus, UniProt P23979, Y152A), sequence (P23979 24-489 Y153A limits assumed): as the sequence (P23979 24-489 Y153F limits assumed) above, with F130A counted along it

- EC50 [1]: 0.8 µM
- EC50 [2]: 5.3 µM
- EC50 [3]: 2 µM
- EC50 [4]: 2.3 µM
- EC50 [5]: 52 µM
- EC50 [6]: 1.7 µM
- EC50 [7]: 5.4 µM
- EC50 [8]: 2.5 µM
- EC50 [9]: 5.1 µM
- EC50 [10]: 16 µM
- EC50 [11]: 27 µM
- EC50 [12]: 2.2 µM
- EC50 [13]: 7.6 µM
- EC50 [14]: 2.2 µM
Compound: N=C(N)NC(=N)Nc1cccc(Cl)c1
